# In the supplement of paper PMC10307832:
# Legend:
# Assay in all cases: relative viability (nuclei count vs DMSO), 5 days (fraction); higher = more cells survive
# NCI-H23 = test system: NCI-H23
# Summary of the method: (§1)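 Lung cancer cell lines in 1536-well plates got either a single drug or a fixed anchor-drug dose together with five library-drug doses (not always all listed) in √10 steps, by pin tool, on the day after seeding. Nuclei were counted after 5 days, and relative viability is the treated-to-vehicle ratio of nuclei counts. Values are medians of duplicate plates.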
# SK-LU-1 = test system: SK-LU-1
# Summary of the method: as §1
# NCI-H1793 = test system: NCI-H1793
# Summary of the method: as §1
# NCI-H661 = test system: NCI-H661
# Summary of the method: as §1
# PC-14 = test system: PC-14
# Summary of the method: as §1
# EKVX = test system: EKVX
# Summary of the method: as §1
# NCI-H1993 = test system: NCI-H1993
# Summary of the method: as §1
# NCI-H460 = test system: NCI-H460
# Summary of the method: as §1
# ChaGo-K-1 = test system: ChaGo-K-1
# Summary of the method: as §1
# NCI-H1944 = test system: NCI-H1944
# Summary of the method: as §1
# EPLC-272H = test system: EPLC-272H
# Summary of the method: as §1
compound,measurement,setting,value
COCC1(CO)C(=O)C2CCN1CC2 (stereo unspecified) [PRIMA-1MET] + Nc1ncn([C@H]2C[C@H](O)[C@@H](CO)O2)c(=O)n1 [Decitabine] (partner 2 µM),relative viability,NCI-H23; first compound 0.2 µM,0.277
same,relative viability,NCI-H23; first compound 0.6325 µM,0.221
same,relative viability,NCI-H23; first compound 2 µM,0.282
same,relative viability,NCI-H23; first compound 6.325 µM,0.293
same,relative viability,NCI-H23; first compound 20 µM,0.162
same,relative viability,SK-LU-1; first compound 0.2 µM,0.523
same,relative viability,SK-LU-1; first compound 0.6325 µM,0.513
same,relative viability,SK-LU-1; first compound 2 µM,0.503
same,relative viability,SK-LU-1; first compound 6.325 µM,0.707
same,relative viability,SK-LU-1; first compound 20 µM,0.593
same,relative viability,NCI-H1793; first compound 0.2 µM,0.484
same,relative viability,NCI-H1793; first compound 0.6325 µM,0.333
same,relative viability,NCI-H1793; first compound 6.325 µM,0.489
same,relative viability,NCI-H1793; first compound 20 µM,0.424
same,relative viability,NCI-H661; first compound 0.2 µM,0.549
same,relative viability,NCI-H661; first compound 0.6325 µM,0.459
same,relative viability,NCI-H661; first compound 2 µM,0.517
same,relative viability,NCI-H661; first compound 6.325 µM,0.567
same,relative viability,NCI-H661; first compound 20 µM,0.497
same,relative viability,PC-14; first compound 0.2 µM,0.18
same,relative viability,PC-14; first compound 0.6325 µM,0.109
same,relative viability,PC-14; first compound 2 µM,0.211
same,relative viability,PC-14; first compound 6.325 µM,0.21
same,relative viability,PC-14; first compound 20 µM,0.0433
same,relative viability,EKVX; first compound 0.2 µM,0.407
same,relative viability,EKVX; first compound 2 µM,0.277
same,relative viability,EKVX; first compound 6.325 µM,0.336
same,relative viability,EKVX; first compound 20 µM,0.199
same,relative viability,NCI-H1993; first compound 0.2 µM,0.57
same,relative viability,NCI-H1993; first compound 2 µM,0.57
same,relative viability,NCI-H1993; first compound 6.325 µM,0.731
same,relative viability,NCI-H1993; first compound 20 µM,0.564
same,relative viability,NCI-H460; first compound 0.2 µM,0.595
same,relative viability,NCI-H460; first compound 0.6325 µM,0.136
same,relative viability,NCI-H460; first compound 2 µM,0.455
same,relative viability,NCI-H460; first compound 6.325 µM,0.513
same,relative viability,NCI-H460; first compound 20 µM,0.0203
same,relative viability,ChaGo-K-1; first compound 0.2 µM,0.514
same,relative viability,ChaGo-K-1; first compound 0.6325 µM,0.362
same,relative viability,ChaGo-K-1; first compound 2 µM,0.557
same,relative viability,ChaGo-K-1; first compound 6.325 µM,0.518
same,relative viability,ChaGo-K-1; first compound 20 µM,0.518
same,relative viability,NCI-H1944; first compound 0.2 µM,0.436
same,relative viability,NCI-H1944; first compound 0.6325 µM,0.35
same,relative viability,NCI-H1944; first compound 2 µM,0.408
same,relative viability,NCI-H1944; first compound 6.325 µM,0.431
same,relative viability,NCI-H1944; first compound 20 µM,0.446
same,relative viability,EPLC-272H; first compound 0.2 µM,0.353
same,relative viability,EPLC-272H; first compound 0.6325 µM,0.306
same,relative viability,EPLC-272H; first compound 2 µM,0.323
same,relative viability,EPLC-272H; first compound 6.325 µM,0.392
